# The source made the active and inactive calls. The calls are words filed in the database; no cut-off is given here.
# Columns and labels:
# [1] = tested on: MDA-MB-231; experiment: Induction of apoptosis in human MDA-MB-231 cells assessed as early apoptotic cells at 0.25 uM by Annexin V-FITC staining based flow cytometric analysis (reference value: 0.17 %); type: functional
# [2] = tested on: MDA-MB-231; experiment: Induction of ferroptosis in human MDA-MB-231 cells assessed as decrease in GPX4 expression in presence of Fer-1 by Western blot analysis; type: functional, cell-based
# [3] = tested on: MDA-MB-231; experiment: Induction of ferroptosis in human MDA-MB-231 cells assessed as decrease in GSH/GSSG ratio incubated for 24 hrs by GSH colorimetric assay; type: functional, cell-based; conditions: dose 0.25-1 µM
# [4] = tested on: 4T1; experiment: Downregulation of phosphorylated JNK protein level at Thr183/185 residues in mouse 4T1 cells at 0.02 to 2.5 uM incubated for 24 hrs by Western blot analysis; type: functional, cell-based; conditions: dose 0.02-2.5 µM
# [5] = tested on: MDA-MB-231; experiment: Antitumor activity against human MDA-MB-231 cells xenografted in nude mouse assessed as reduction in tumor weight at 10 mg/kg, ip administered for 30 days relative to control; type: functional; design: scale not given: the % may be the effect or the level left; conditions: time 30 day
# [6] = tested on: MDA-MB-231; experiment: Induction of apoptosis in human MDA-MB-231 cells assessed as necrotic cells at 1 uM by Annexin V-FITC staining based flow cytometric analysis (reference value: 7.98 %); type: functional
# [7] = tested on: MDA-MB-231; experiment: Induction of apoptosis in human MDA-MB-231 cells assessed as early apoptotic cells at 0.5 uM by Annexin V-FITC staining based flow cytometric analysis (reference value: 0.17 %); type: functional
# [8] = tested on: MDA-MB-231; experiment: Induction of apoptosis in human MDA-MB-231 cells assessed as necrotic cells at 0.25 uM by Annexin V-FITC staining based flow cytometric analysis (reference value: 7.98 %); type: functional
# [9] = tested on: MDA-MB-231; experiment: Induction of ferroptosis in human MDA-MB-231 cells assessed as decrease in GPX4 expression by Western blot analysis; type: functional, cell-based; conditions: dose 0.25-1 µM
# [10] = tested on: MDA-MB-231; experiment: Inhibition of cell adhesion in human MDA-MB-231 cells assessed as rounded form appearance of cells at 0.02 to 0.5 uM incubated for 24 hrs by microscopic analysis; type: functional, cell-based; conditions: dose 0.02-0.5 µM
# [11] = tested on: MDA-MB-231; experiment: Induction of apoptosis in human MDA-MB-231 cells assessed as upregulation of PARP-1 expression at 0.25 to 1 uM by Western blot analysis; type: functional, cell-based; conditions: dose 0.25-1 µM
# [12] = tested on: MDA-MB-468; experiment: Antiproliferative activity against human MDA-MB-468 cells assessed as reduction in cell viability incubated for 72 hrs by MTT assay; type: functional, cell-based; conditions: MDA-MB-468, 72 h
# [13] = Acute toxicity in female ICR mouse assessed as kidney pathological abnormalities at 50 mg/kg, ip measured after 2 days; type: organism-based; conditions: in vivo, 48 h, time 2 day
# [14] = Acute toxicity in female ICR mouse assessed as spleen pathological abnormalities at 50 mg/kg, ip measured after 2 days; type: organism-based; conditions: in vivo, 48 h, time 2 day
# [15] = Acute toxicity in female ICR mouse assessed as effect on body weight at <40 mg/kg, ip measured within 24 hrs; type: organism-based; conditions: in vivo
# [16] = Drug metabolism in nude mouse xenografted with human MDA-MB-231 cells assessed as metabolite formation at 10 to 20 mg/kg, ip administered for 30 days by LC-MS/MS analysis; type: ADME, organism-based; conditions: in vivo, 720 h, dose 10-20 mg/kg, time 30 day
# [17] = tested on: MDA-MB-231; experiment: Induction of ferroptosis in human MDA-MB-231 cells xenografted in nude mouse assessed as reduction in GPX4 level at 10 to 20 mg/kg, ip administered for 30 days by immunohistochemistry analysis; type: functional, organism-based; conditions: dose 10-20 mg/kg, time 30.0 day
# [18] = tested on: 4T1; experiment: Downregulation of phosphorylated AKT protein level at Ser473 residue in mouse 4T1 cells at 0.02 to 2.5 uM incubated for 24 hrs by Western blot analysis; type: functional, cell-based; conditions: dose 0.02-2.5 µM
# [19] = tested on: MDA-MB-231; experiment: Antimigratory activity in human MDA-MB-231 cells assessed as inhibition of cell migration at 0.02 to 0.5 uM incubated for 24 hrs by scratch assay; type: functional, cell-based; conditions: dose 0.02-0.5 µM
# [20] = tested on: MDA-MB-231; experiment: Induction of apoptosis in human MDA-MB-231 cells assessed as necrotic cells at 0.5 uM by Annexin V-FITC staining based flow cytometric analysis (reference value: 7.98 %); type: functional
# [21] = tested on: 4T1; experiment: Antimetastatic activity in mouse 4T1 cells implanted in female BALB/c mouse assessed as reduction in number of metastatic nodules in lungs at 10 mg/kg, ip administered once daily for 2 weeks and measured 2 weeks after tumor removal with compound treatment (reference value: 193.7 +/- 6.50); type: functional; conditions: time 4 weeks
# [22] = tested on: Mitochondria; experiment: Induction of ROS accumulation in mitochondria of human MDA-MB-231 cells at 0.25 to 1 uM by MitoSOX probe based flow cytometric analysis; type: functional; conditions: dose 0.25-1 µM
# [23] = tested on: MDA-MB-231; experiment: Induction of ferroptosis in human MDA-MB-231 cells assessed as decrease in FTH1 expression in presence of Fer-1 by Western blot analysis; type: functional, cell-based
# [24] = tested on: MDA-MB-231; experiment: Antiinvasive activity against human MDA-MB-231 cells assessed as inhibition of cell invasion at 0.5 uM measured after 24 hrs by crystal violet staining based transwell invasion assay relative to control; type: functional
# [25] = tested on: MDA-MB-231; experiment: Induction of apoptosis in human MDA-MB-231 cells assessed as viable cells at 1 uM by Annexin V-FITC staining based flow cytometric analysis (reference value: 91.03%); type: functional; conditions: read-out: Activity
# [26] = tested on: MDA-MB-231; experiment: Antiinvasive activity against human MDA-MB-231 cells assessed as reduction in cell invasion measured after 24 hrs by crystal violet staining based transwell invasion assay; type: functional; conditions: dose 0.02-0.5 µM
# [27] = tested on: MDA-MB-231; experiment: Antiproliferative activity against human MDA-MB-231 cells assessed as reduction in cell viability incubated for 72 hrs by MTT assay; type: functional, cell-based; conditions: MDA-MB-231, 72 h
# [28] = Drug metabolism in nude mouse xenografted with human MDA-MB-231 cells assessed as aurovertin-B release at 10 to 20 mg/kg, ip administered for 30 days by LC-MS/MS analysis; type: ADME, organism-based; conditions: in vivo, 720 h, dose 10-20 mg/kg, time 30 day
# [29] = tested on: 4T1; experiment: Antiinvasive activity against mouse 4T1 cells assessed as inhibition of cell invasion at 0.5 uM measured after 24 hrs by crystal violet staining based transwell invasion assay relative to control; type: functional
# [30] = Acute toxicity in female ICR mouse assessed as effect on behavior at <40 mg/kg, ip measured within 24 hrs; type: organism-based; conditions: in vivo
# [31] = tested on: MDA-MB-231; experiment: Inhibition of Bcl-xl expression in human MDA-MB-231 cells at 0.25 to 1 uM by Western blot analysis; type: functional, cell-based; conditions: dose 0.25-1 µM
# [32] = tested on: HCC1937; experiment: Antiproliferative activity against human HCC1937 cells assessed as reduction in cell viability incubated for 72 hrs by MTT assay; type: functional, cell-based; conditions: HCC1937, 72 h
# [33] = Cytotoxicity against human MCF-10A cells assessed as reduction in cell viability incubated for 72 hrs by MTT assay; type: toxicity, cell-based
# [34] = tested on: MDA-MB-231; experiment: Induction of NO release in human MDA-MB-231 cells assessed NO concentration by Griess reagent based assay; type: functional
# [35] = Selectivity index, ratio of IC50 for cytotoxicity against human MCF-10A cells to IC50 for antiproliferative activity against human MDA-MB-231 cells; type: toxicity, cell-based; conditions: MCF-10A cells versus MDA-MB-231 cells, read-out: Ratio IC50
# [36] = tested on: MCF7; experiment: Antiproliferative activity against human MCF7 cells assessed as reduction in cell viability incubated for 72 hrs by MTT assay; type: functional, cell-based; conditions: MCF7, 72 h
structure (smiles),measurement,setting,value
CC[C@H]1O[C@@]2(C)[C@H](OC(C)=O)[C@@]1(C)O[C@@H](/C=C/C=C/C=C/c1oc(=O)cc(OC)c1C)[C@@H]2OC(=O)CCC(=O)OC/C=C/COc1no[n+]([O-])c1S(=O)(=O)c1ccccc1,Activity,[1],12.97%
same,Activity,[2],inactive
same,Activity,[3],Dose-Dependent Effect
same,Activity,[4],Active
same,Activity,[5],86%
same,Activity,[6],1.42%
same,Activity,[7],16.23%
same,Activity,[8],0.37%
same,Activity,[9],Dose-Dependent Effect
same,inhibition,[10],Active
same,Activity,[11],Active
same,IC50,[12],0.45 µM
same,Activity,[13],Non-Toxic
same,Activity,[14],Non-Toxic
same,Activity,[15],Non-Toxic
same,Drug metabolism,[16],Metabolite_Detected
same,Activity,[17],Active
same,Activity,[18],Active
same,Activity,[19],Active
same,Activity,[20],0.44%
same,Activity,[21],64.5
same,Activity,[22],Active
same,Activity,[23],inactive
same,inhibition at 0.5 µM,[24],60.7%
same,viability at 1 µM,[25],47%
same,Activity,[26],Dose-Dependent Effect
same,IC50,[27],0.63 µM
same,Drug metabolism,[28],Metabolite_Detected
same,inhibition at 0.5 µM,[29],62.8%
same,Activity,[30],Non-Toxic
same,inhibition,[31],Active
same,IC50,[32],0.87 µM
same,IC50 at 72 h,[33],> 50 µM
same,Activity,[34],4.87 µM
same,selectivity ratio,[35],> 79
same,IC50,[36],> 50 µM

# Source: ChEMBL document CHEMBL5523764, “Discovery of NO Donor-Aurovertin Hybrids as Dual Ferroptosis and Apoptosis Inducers for Treating Triple Negative Breast Cancer” (J Med Chem, 2024)
